According to patent publication US20120315283A1, “METHODS OF PROMOTING TISSUE GROWTH AND TISSUE REGENERATION” (DANA-FARBER CANCER INSTITUTE, INC., priority 2010, published 2012):
Entries after “also recorded” stand apart in the source; their conditions may differ.

Legend:
[1] = test system: Lewis lung carcinoma (LLC); experiment: Spontaneous LLC metastasis model (primary tumor resection); type: in vivo, mouse; details: for spontaneous LLC lung metastasis / spontaneous LLC liver, kidney and lymph node metastasis: after LLC resection, 12 days, t-AUCB and TUPS 10 mg/kg/day; for spontaneous LLC lung metastasis: 14,15-EET and 14,15-DHET 15 μg/kg/day; for spontaneous LLC liver, kidney and lymph node metastasis: 14,15-EET 15 μg/kg/day, vehicle-treated mice do not develop liver metastasis; for 14,15-EET-induced spontaneous LLC (lung) metastasis: EET antagonist 0.21 mg/mouse co-administered with 14,15-EET 15 μg/kg/day following LLC resection, day 12
From the text: The role of non-cell autonomous effects of endothelial-derived EETs in tumor metastasis was unknown.

LLC tumor cells [2] = experiment: In vitro tumor cell production of VEGF, LLC; type: cell-based, mouse; details: 14,15-EET
B16F10 tumor cells = experiment: In vitro tumor cell production of VEGF, B16F10; type: cell-based, mouse; details: 14,15-EET
mice [3] = experiment: Liver regeneration following partial hepatectomy; type: in vivo, mouse; details: day 4 following partial hepatectomy, 14,15-EET 15 μg/kg/day via minipump, TUPS 10 mg/kg/day; for liver regeneration: vs vehicle/control; for increase in liver regeneration (liver/body weight ratio): vs vehicle
From the text: There were no significant differences in liver/body weight ratio at baseline or following sham operation (FIG. 6D). […] Endothelial cell proliferation was increased in the Tie2-CYP2C8-Tr mice when compared to WT mice (FIG. 6D).

mice [4] = experiment: Endometriosis (ectopically implanted uterine tissue); type: in vivo, mouse; details: systemic 14,15-EET 15 μg/kg/day via minipump
VEGF production = experiment: β-galactosidase staining of LLC tumors in VEGF-LacZ-Tr mice; type: in vivo, mouse; details: systemic 14,15-EET 15 μg/kg/day, absent in non-treated size-matched tumors
From the text: However, analysis of LLC tumors in VEGF-LacZ-Tr mice in which the LacZ reporter was introduced into the VEGF locus (A. S. Maharaj, M. Saint-Geniez, A. E. Maldonado, P. A. D'Amore, Am J Pathol 168, 639 2006).

[5] = test system: Lewis lung carcinoma (LLC); experiment: Primary LLC tumor growth; type: in vivo, mouse; details: for primary LLC tumor growth: systemic, 14,15-EET 15 μg/kg/day minipump, t-AUCB in LLC-GFP tumors, 13 days of treatment, 14,15-EEZE 0.21 mg/mouse, established tumors
endothelial cells = experiment: Endothelial cell migration; type: cell-based
LLC tumor cells [6] = experiment: Tumor cell (LLC) migration; type: cell-based, mouse; details: 14,15-EEZE
mice [7] = experiment: Wound healing (ear punch wound assay); type: in vivo, mouse; details: systemic TUPS 10 mg/kg/day, day 4, vs vehicle
From the text: In one embodiment, a full-thickness wound is effected by removing a section of skin (e.g., 1.5 mm diameter) from the dorsal surface (e.g., back) of an anesthetized animal by e.g., surgical incision. If so desired, the section of skin to be wounded can be pre-treated with a candidate pro-angiogenic factor prior to wound induction by e.g., subcutaneous injection. Alternatively, the wound can be treated using a candidate pro-angiogenic factor coincident with or immediately following wounding using methods known to one of skill in the art. The size, area, rate of healing, contraction and histology of the wound are assessed at different time points by methods known to those of skill in the art. The wound size of an animal is assessed by measuring the unclosed wound area compared to the original wound area. Wound healing can be expressed as either percent wound closure or percent wound closure rate. Wounds can be harvested at different time points by euthanizing the animal and removing a section of skin surrounding the wound site for histological analysis if so desired.
An ear punch model can also be used to assess rates of angiogenesis or wound healing, in a design similar to that for the full thickness dorsal back skin assay. The model consists of wounding the ear of an animal using a circular punch of a standard size (e.g., 2.25 mm). […]

B16F10 melanoma = experiment: Spontaneous B16F10 metastasis after primary tumor resection; type: in vivo, mouse; details: 21 days of treatment post B16F10 resection, 10 mg/kg/day
mice [8] = experiment: Lung growth following left pneumonectomy; type: in vivo, mouse; details: day 4 post left pneumonectomy, vs vehicle-treated mice, p<0.05
From the text: As shown herein, epoxyeicosatrienoic acids (EETs) stimulate angiogenesis, in part via the VEGF signaling network. Since compensated lung growth is dependent on VEGF-induced angiogenesis, it was hypothesized that endothelial cells (ECs) stimulate lung growth via production of EETs. To confirm the effects of CYP2C8 overexpression, EET levels were increased by inhibition of soluble epoxide hydrolase (sEH) following left penumonectomy. […] In contrast, there was no significant change in baseline lung volume/body weight ratio after sham operation.
As shown herein, epoxyeicosatrienoic acids (EETs) stimulate angiogenesis, in part via the VEGF signaling network. Since compensated lung growth is dependent on VEGF-induced angiogenesis, it was hypothesized that endothelial cells (ECs) stimulate lung growth via production of EETs. Transgenic (Tg) mice with EC-specific overexpression of CYP2C8 (Tie2 promoter-driven) were used to study the consequence of increased EETs on lung growth following left pneumonectomy. To confirm the effects of CYP2C8 overexpression, EET levels were increased by inhibition of soluble epoxide hydrolase (sEH). EC-specific overexpression of CYP2C8 promoted contralateral lung growth following unilateral pneumectomy. Lung volume/body weight on day 4 post-pneumonectomy were increased by 23% (p<0.001) in Tg mice compared to WT mice (FIG. 12). […]

[9] = TSP1 null mice, 14,15-EEZE 0.21 mg/mouse

## CCCCCC(O)C(O)C/C=C\C/C=C\C/C=C\CCCC(=O)O (centres unmarked) [14,15-DHET]
[1]
  spontaneous LLC lung metastasis: has no effect relative to control; also recorded: does not stimulate metastasis

## CCCCCC1OC1C/C=C\C/C=C\C/C=C\CCCC(=O)O (centres unmarked) [14,15-EET]
[1]; WT mice, 14,15-EET via osmotic mini-pumps at time of LLC resection, 12 days after resection, vs vehicle
  increase in the number of surface lung metastases: 3 fold
[1]
  spontaneous LLC liver, kidney and lymph node metastasis: induction of liver, kidney and distant lymph node metastasis; also recorded: increases spontaneous LLC lung metastasis and distant femoral lymph node metastasis
  spontaneous LLC lung metastasis: increases spontaneous lung and distant femoral lymph node metastasis; also recorded: increases spontaneous LLC lung metastasis
LLC tumor cells [2]
  VEGF production by LLC tumor cells in vitro: no significant effect
B16F10 tumor cells
  VEGF production by B16F10 tumor cells in vitro: no significant effect
Mice [3]
  liver regeneration: stimulates liver regeneration
  increase in liver regeneration (liver/body weight ratio): 21%
Mice [4]; WT mice, day 6, vs vehicle
  increase in endometriosis: 254%
Mice [4]; day 6, percent of lesions established and area of established lesions
  endometriosis: endometriosis is stimulated
VEGF production
  β-galactosidase staining (marker of VEGF production) in tumor endothelium and stromal fibroblasts: show β-galactosidase staining; also recorded: stained positively
[5]
  primary LLC tumor growth: significantly accelerated primary LLC tumor growth; also recorded: increases primary LLC tumor growth

## CCCCCC1OC1CCCCCCCC=CCCCC(=O)NS(C)(=O)=O (centres unmarked) [14,15-EEZE-mSI]
[1]
  14,15-EET-induced spontaneous LLC (lung) metastasis: inhibits lung metastasis induced by 14,15-EET; also recorded: inhibits 14,15-EET- (15 μg/kg/day) induced spontaneous LLC metastasis

## CCCCCC1OC1CCCCCCC/C=C\CCCC(=O)O (centres unmarked) [14,15-EEZE]
[1]
  14,15-EET-induced spontaneous LLC (lung) metastasis: reduced lung metastasis
[1]; EET antagonist co-administered with 14,15-EET following LLC resection
  14,15-EET-induced macroscopic liver and lymph node metastasis: prevented macroscopic liver and lymph node metastasis
[1]; LLC resection metastasis model, 14,15-EEZE 0.21 mg/mouse
  survival: prolongs survival
[1]; spontaneous LLC lung metastasis model, 14,15-EEZE 0.21 mg/mouse
  plasma VEGF levels: reduces plasma VEGF levels
Endothelial cells; 14,15-EEZE, dose-dependent
  endothelial cell migration (VEGF-induced), inhibition: inhibited endothelial migration in a dose-dependent fashion; also recorded: inhibits VEGF-induced endothelial cell
LLC tumor cells [6]
  migration of LLC tumor cells: no significant effect; also recorded: not tumor cell (LLC) migration
[5]; [9]
  primary LLC tumor growth in TSP1 null mice: does not significantly inhibit primary LLC tumor growth
  tumor suppression by the EET antagonist: 24%
[5]; WT mice, 14,15-EEZE 0.21 mg/mouse
  tumor suppression by the EET antagonist: 62%
[5]
  primary LLC tumor growth: reduced primary LLC growth; also recorded: inhibits primary LLC growth

## CS(=O)(=O)N1CCC(NC(=O)Nc2ccc(OC(F)(F)F)cc2)CC1 [TUPS, 1-(1-methanesulfonyl-piperidin-4-yl)-3-(4-trifluoromethoxy-phenyl)-urea]
Mice [7]
  wound healing: accelerates wound healing; also recorded: significantly accelerated wound healing
[1]
  spontaneous LLC liver, kidney and lymph node metastasis: induces spontaneous liver metastasis; also recorded: dramatically stimulated; also recorded: increase liver metastasis
  spontaneous LLC lung metastasis: dramatically stimulated
Mice [3]
  liver regeneration: increases liver regeneration
  increase in liver regeneration (liver/body weight ratio): 38%
B16F10 melanoma
  spontaneous B16F10 axillary lymph node metastasis: dramatically stimulated; also recorded: increase spontaneous B16F10 axillary lymph node metastasis
Mice [8]
  lung growth/body weight (lung regeneration): increase in lung regeneration; also recorded: stimulated lung growth/body weight
Endothelial cells; VEGF-mediated
  VEGF-mediated endothelial migration: stimulate VEGF-mediated endothelial migration
Endothelial cells; basal, without VEGF
  basal endothelial migration: no significant effects
